Here are results for 23 molecules from patent US7981903B2, “2-[2-{phenylamino}-1H-pyrrolo[2,3-D]pyrimidin-4-yl)amino] benzamide derivatives as IGF-1R inhibitors for the treatment of cancer” (GlaxoSmithKline LLC, priority 2007, dated 2011).

For assay [1], the target named is T1, NIH-3T3 cells overexpressing human IGF-1R (Homo sapiens, UniProt P08069).
T1 construct: expressed in transfected cells; host or cells: NIH-3T3 (mouse fibroblasts)
Description: IGF-1R cellular autophosphorylation (DELFIA). It counts as cell-based. The essentials: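 Receptor autophosphorylation measured by DELFIA, capturing IGF-1R or IRβ and detecting with europium anti-pTyr, reported as percent of IGF-1- or insulin-stimulated signal. Compounds (30 uM to 1.5 nM) added 2 h before ligand, then 15 min stimulation (IGF-1 30 ng/ml or insulin 3 ug/ml).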

For another assay, the target named is T2, human IGF1R (hIGF1R) (Homo sapiens, UniProt P08069).
T2 construct: containing amino acid residues 957-1367 of human IGF1R; made in house; host or cells: Sf9 cells (baculovirus)
The assay is described as follows: TR-FRET kinase assay of purified hIGF1R. In kind it is biochemical. The conditions noted are these: activated hIGF1R 0.5 nM, 10 μM ATP, values given as pIC50 category, read-out: IGF-1R pIC50 (converted). A general note: TR-FRET usually uses a lanthanide donor and a delayed reading to cut background.

Bounds are passed on as bounds.

T1 sequence (P08069 31-1367): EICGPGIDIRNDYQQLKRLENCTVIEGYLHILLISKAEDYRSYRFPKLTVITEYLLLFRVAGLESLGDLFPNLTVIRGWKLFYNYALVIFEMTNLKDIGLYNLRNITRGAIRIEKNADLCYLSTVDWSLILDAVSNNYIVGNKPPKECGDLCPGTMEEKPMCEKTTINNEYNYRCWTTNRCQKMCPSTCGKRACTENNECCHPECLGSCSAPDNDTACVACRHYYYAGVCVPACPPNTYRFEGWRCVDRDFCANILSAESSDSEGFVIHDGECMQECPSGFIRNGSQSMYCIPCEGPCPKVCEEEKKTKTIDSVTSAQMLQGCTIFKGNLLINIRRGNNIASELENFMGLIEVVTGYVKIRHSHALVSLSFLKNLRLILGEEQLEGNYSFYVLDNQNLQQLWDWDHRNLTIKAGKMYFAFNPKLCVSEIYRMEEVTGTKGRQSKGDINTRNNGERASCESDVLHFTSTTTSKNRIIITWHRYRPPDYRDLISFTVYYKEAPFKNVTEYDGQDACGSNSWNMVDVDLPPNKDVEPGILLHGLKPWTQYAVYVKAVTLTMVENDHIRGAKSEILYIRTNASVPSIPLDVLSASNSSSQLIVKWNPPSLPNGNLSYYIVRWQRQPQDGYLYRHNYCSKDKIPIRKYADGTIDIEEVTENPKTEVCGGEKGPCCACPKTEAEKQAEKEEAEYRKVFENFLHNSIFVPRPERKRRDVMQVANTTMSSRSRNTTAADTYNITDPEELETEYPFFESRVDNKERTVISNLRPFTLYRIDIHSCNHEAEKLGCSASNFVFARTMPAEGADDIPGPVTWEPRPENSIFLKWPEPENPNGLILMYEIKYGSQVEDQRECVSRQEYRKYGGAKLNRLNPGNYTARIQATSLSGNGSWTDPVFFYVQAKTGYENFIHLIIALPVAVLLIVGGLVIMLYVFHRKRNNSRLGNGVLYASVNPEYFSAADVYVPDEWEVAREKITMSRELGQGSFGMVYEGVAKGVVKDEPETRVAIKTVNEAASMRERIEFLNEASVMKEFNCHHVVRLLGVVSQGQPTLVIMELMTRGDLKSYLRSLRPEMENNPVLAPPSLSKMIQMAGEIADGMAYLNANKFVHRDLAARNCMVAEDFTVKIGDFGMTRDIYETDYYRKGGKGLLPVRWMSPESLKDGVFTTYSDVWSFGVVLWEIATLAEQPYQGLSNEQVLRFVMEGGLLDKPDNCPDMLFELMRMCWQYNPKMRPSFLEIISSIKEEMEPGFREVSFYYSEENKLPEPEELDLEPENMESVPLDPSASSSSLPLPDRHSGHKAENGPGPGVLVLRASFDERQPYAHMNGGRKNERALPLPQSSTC
T2 sequence (P08069 957-1367): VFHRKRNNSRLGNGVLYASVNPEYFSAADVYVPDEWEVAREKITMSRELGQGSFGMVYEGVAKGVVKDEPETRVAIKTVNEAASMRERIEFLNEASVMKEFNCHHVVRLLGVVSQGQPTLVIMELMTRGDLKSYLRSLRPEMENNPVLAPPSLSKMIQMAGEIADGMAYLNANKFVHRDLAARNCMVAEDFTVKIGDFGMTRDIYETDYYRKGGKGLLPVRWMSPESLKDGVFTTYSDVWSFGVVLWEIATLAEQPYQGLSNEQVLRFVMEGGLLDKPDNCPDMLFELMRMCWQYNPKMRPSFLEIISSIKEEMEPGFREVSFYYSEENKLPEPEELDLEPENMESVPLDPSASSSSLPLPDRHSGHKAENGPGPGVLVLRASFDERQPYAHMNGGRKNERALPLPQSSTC

As to `COc1cc(OCCN2CCN(C)CC2)ccc1Nc1nc(Nc2cccc(F)c2C(N)=O)c2cc[nH]c2n1` [Example 203, 2-fluoro-6-({2-[(2-(methyloxy)-4-{[2-(4-methyl-1-piperazinyl)ethyl]oxy}phenyl)amino]-1H-pyrrolo[2,3-d]pyrimidin-4-yl}amino)benzamide], the IC50 is 100 to 500 nM in assay [1] and 5.01 to 200 nM on human IGF1R (hIGF1R).
The matching figures for `COc1ccc(OC[C@@H](O)CN2CCCC2)cc1Nc1nc(Nc2cc(F)c(F)cc2C(N)=O)c2cc[nH]c2n1` [Example 107, 4,5-difluoro-2-[(2-{[5-{[(2S)-2-hydroxy-3-(1-pyrrolidinyl)propyl]oxy}-2-(methyloxy)phenyl]amino}-1H-pyrrolo[2,3-d]pyrimidin-4-yl)amino]benzamide]: 100 to 500 nM and 0.251 to 1 nM.
The matching figures for `CNC(=O)c1c(F)cccc1Nc1nc(Nc2cc3c(cc2OC)CCN(C(C)C)C3)nc2[nH]ccc12` [Example 235, 2-fluoro-N-methyl-6-[(2-{[2-(1-methylethyl)-6-(methyloxy)-1,2,3,4-tetrahydro-7-isoquinolinyl]amino}-1H-pyrrolo[2,3-d]pyrimidin-4-yl)amino]benzamide]: over 500 nM and 5.01 to 200 nM.
The matching figures for `CNC(=O)c1c(F)cccc1Nc1nc(Nc2cc3c(cc2OC)CCC(=O)N3)nc2[nH]ccc12` [Example 222, 2-fluoro-N-methyl-6-[(2-{[6-(methyloxy)-2-oxo-1,2,3,4-tetrahydro-7-quinolinyl]amino}-1H-pyrrolo[2,3-d]pyrimidin-4-yl)amino]benzamide]: over 500 nM and 5.01 to 200 nM.
For the molecule `COc1cc2c(cc1Nc1nc(Nc3cc(F)cc(F)c3C(N)=O)c3cc[nH]c3n1)NCCC2` [Example 220, 2,4-difluoro-6-[(2-{[6-(methyloxy)-1,2,3,4-tetrahydro-7-quinolinyl]amino}-1H-pyrrolo[2,3-d]pyrimidin-4-yl)amino]benzamide], the IC50 is 100 to 500 nM in assay [1] and 5.01 to 200 nM on human IGF1R (hIGF1R).
For `COc1cc2c(cc1Nc1nc(Nc3cccc(F)c3C(N)=O)c3cc[nH]c3n1)N(C(=O)CCN(C)C)CC2` [Example 118, 2-[(2-{[1-(N,N-dimethyl-b-alanyl)-5-(methyloxy)-2,3-dihydro-1H-indol-6-yl]amino}-1H-pyrrolo[2,3-d]pyrimidin-4-yl)amino]-6-fluorobenzamide], in that order: 100 to 500 nM and 5.01 to 200 nM.
For `COc1cc2c(cc1Nc1nc(Nc3cccc(F)c3C(N)=O)c3cc(C)[nH]c3n1)N(C(=O)CN(C)C)CC2` [Example 262, 2-[(2-{[1-(N,N-dimethylglycyl)-5-(methyloxy)-2,3-dihydro-1H-indol-6-yl]amino}-6-methyl-1H-pyrrolo[2,3-d]pyrimidin-4-yl)amino]-6-fluorobenzamide], in that order: 100 to 500 nM and 5.01 to 200 nM.
The matching figures for `COc1cc(N2CCC(N3CCOCC3)CC2)ccc1Nc1nc(Nc2cc(F)ccc2C(N)=O)c2cc[nH]c2n1` [Example 78, 4-fluoro-2-{[2-({2-(methyloxy)-4-[4-(4-morpholinyl)-1-piperidinyl]phenyl}amino)-1H-pyrrolo[2,3-d]pyrimidin-4-yl]amino}benzamide]: under 100 nM and 0.251 to 1 nM.
As for `CCCN1CCC=C(c2ccc(Nc3nc(Nc4ccccc4C(N)=O)c4cc[nH]c4n3)c(OC)c2)C1` [Example 2, 2-[(2-{[2-(methyloxy)-4-(1-propyl-1,2,5,6-tetrahydro-3-pyridinyl)phenyl]amino}-1H-pyrrolo[2,3-d]pyrimidin-4-yl)amino]benzamide], the IC50 is 100 to 500 nM in assay [1] and 0.251 to 1 nM at human IGF1R (hIGF1R).
Take `COc1cc2c(cc1Nc1nc(Nc3cccc(F)c3C(N)=O)c3cc[nH]c3n1)CN(CCCN(C)C)CC2` [Example 232, 2-[(2-{[2-[3-(dimethylamino)propyl]-6-(methyloxy)-1,2,3,4-tetrahydro-7-isoquinolinyl]amino}-1H-pyrrolo[2,3-d]pyrimidin-4-yl)amino]-6-fluorobenzamide]: the IC50 in assay [1] is over 500 nM; on human IGF1R (hIGF1R), 5.01 to 200 nM.
The matching figures for `COc1cc(N2CCN(S(C)(=O)=O)CC2)ccc1Nc1nc(Nc2cccc(F)c2C(N)=O)c2cc[nH]c2n1` [Example 204, 2-fluoro-6-{[2-({2-(methyloxy)-4-[4-(methylsulfonyl)-1-piperazinyl]phenyl}amino)-1H-pyrrolo[2,3-d]pyrimidin-4-yl]amino}benzamide]: over 500 nM and 5.01 to 200 nM.
The matching figures for `CCCN(CCC)[C@@H](C)C(=O)N1CCc2cc(OC)c(Nc3nc(Nc4cccc(F)c4C(=O)NC)c4cc[nH]c4n3)cc21` [Example 191, 2-[(2-{[1-(N,N-dipropyl-L-alanyl)-5-(methyloxy)-2,3-dihydro-1H-indol-6-yl]amino}-1H-pyrrolo[2,3-d]pyrimidin-4-yl)amino]-6-fluoro-N-methylbenzamide]: 100 to 500 nM and 5.01 to 200 nM.
For `COCC(=O)N1CCc2cc(OC)c(Nc3nc(Nc4cccc(F)c4C(N)=O)c4cc[nH]c4n3)cc21` [Example 149, 2-fluoro-6-{[2-({5-(methyloxy)-1-[(methyloxy)acetyl]-2,3-dihydro-1H-indol-6-yl}amino)-1H-pyrrolo[2,3-d]pyrimidin-4-yl]amino}benzamide], in that order: 100 to 500 nM and 5.01 to 200 nM.
As for `COc1cc2c(cc1Nc1nc(Nc3cc(Cl)cc(F)c3C(N)=O)c3cc[nH]c3n1)N(C(=O)CN(C)C)CC2` [Example 119, 4-chloro-2-[(2-{[1-(N,N-dimethylglycyl)-5-(methyloxy)-2,3-dihydro-1H-indol-6-yl]amino}-1H-pyrrolo[2,3-d]pyrimidin-4-yl)amino]-6-fluorobenzamide], the IC50 is under 100 nM in assay [1] and 0.251 to 1 nM on human IGF1R (hIGF1R).
The matching figures for `COc1cc2c(cc1Nc1nc(Nc3cccc(F)c3C(N)=O)c3cc[nH]c3n1)N(C(=O)CCN(C)C)CCC2` [Example 214, 2-[(2-{[1-(N,N-dimethyl-β-alanyl)-6-(methyloxy)-1,2,3,4-tetrahydro-7-quinolinyl]amino}-1H-pyrrolo[2,3-d]pyrimidin-4-yl)amino]-6-fluorobenzamide]: 100 to 500 nM and 5.01 to 200 nM.
For the molecule `CCN(C)CC(=O)N1CCc2cc(OC)c(Nc3nc(Nc4cccc(F)c4C(=O)NC)c4cc[nH]c4n3)cc21` [Example 165, 2-[(2-{[1-(N-ethyl-N-methylglycyl)-5-(methyloxy)-2,3-dihydro-1H-indol-6-yl]amino}-1H-pyrrolo[2,3-d]pyrimidin-4-yl)amino]-6-fluoro-N-methylbenzamide], the IC50 is 100 to 500 nM in assay [1] and 5.01 to 200 nM at human IGF1R (hIGF1R).
For `CCN(C)CC(=O)N1CCCc2cc(OC)c(Nc3nc(Nc4cccc(F)c4C(=O)NC)c4cc[nH]c4n3)cc21` [Example 132, 2-[(2{-[1-(N-ethyl-N-methylglycyl)-6-(methyloxy)-1,2,3,4-tetrahydro-7-quinolinyl]amino}-1H-pyrrolo[2,3-d]pyrimidin-4-yl)amino]-6-fluoro-N-methylbenzamide], in that order: under 100 nM and 5.01 to 200 nM.
In the case of `CNC(=O)c1c(F)cccc1Nc1nc(Nc2cc3c(cc2OC)CCCN3C(=O)CCN(C)C)nc2[nH]ccc12` [Example 213, 2-[(2-{[1-(N,N-dimethyl-β-alanyl)-6-(methyloxy)-1,2,3,4-tetrahydro-7-quinolinyl]amino}-1H-pyrrolo[2,3-d]pyrimidin-4-yl)amino]-6-fluoro-N-methylbenzamide], the figures for the IC50 (in assay [1]; at human IGF1R (hIGF1R)) were over 500 nM and 5.01 to 200 nM, respectively.
The matching figures for `COc1cc2c(cc1Nc1nc(Nc3cccc(F)c3C(N)=O)c3cc[nH]c3n1)N(C(=O)[C@@H]1CCCN1C)CC2` [Example 147, 2-fluoro-6-[(2-{[5-(methyloxy)-1-(1-methyl-L-prolyl)-2,3-dihydro-1H-indol-6-yl]amino}-1H-pyrrolo[2,3-d]pyrimidin-4-yl)amino]benzamide]: 100 to 500 nM and 5.01 to 200 nM.
The matching figures for `CNC(=O)c1c(F)cc(F)cc1Nc1nc(Nc2cc3c(cc2OC)CCN3C(=O)CN(C)C)nc2[nH]ccc12` [Example 190, 2-[(2-{[1-(N,N-dimethylglycyl)-5-(methyloxy)-2,3-dihydro-1H-indol-6-yl]amino}-1H-pyrrolo[2,3-d]pyrimidin-4-yl)amino]-4,6-difluoro-N-methylbenzamide]: under 100 nM and 0.251 to 1 nM.
The matching figures for `COc1ccc(OC[C@@H](O)CN(C)C)cc1Nc1nc(Nc2cc(F)ccc2C(N)=O)c2cc[nH]c2n1` [Example 86, 2-[(2-{[5-{[(2S)-3-(dimethylamino)-2-hydroxypropyl]oxy}-2-(methyloxy)phenyl]amino}-1H-pyrrolo[2,3-d]pyrimidin-4-yl)amino]-4-fluorobenzamide]: 100 to 500 nM and 0.251 to 1 nM.
Take `CNC(=O)c1c(F)cccc1Nc1nc(Nc2cc3c(cc2OC)CCCN3C(=O)[C@@H]2CCCN2C)nc2[nH]ccc12` [Example 202, 2-fluoro-N-methyl-6-[(2-{[6-(methyloxy)-1-(1-methyl-L-prolyl)-1,2,3,4-tetrahydro-7-quinolinyl]amino}-1H-pyrrolo[2,3-d]pyrimidin-4-yl)amino]benzamide]: the IC50 is 100 to 500 nM in assay [1] and 5.01 to 200 nM at human IGF1R (hIGF1R).
The matching figures for `COc1ccc(NC(=O)CN(C)C)cc1Nc1nc(Nc2cccc(F)c2C(N)=O)c2cc[nH]c2n1` [Example 244, 2-[(2-{[5-[(N,N-dimethylglycyl)amino]-2-(methyloxy)phenyl]amino}-1H-pyrrolo[2,3-d]pyrimidin-4-yl)amino]-6-fluorobenzamide]: under 100 nM and 0.251 to 1 nM.
